Source: patent US10253017B2, “Derivatives of 2-aminopyridine as adenosine A2B receptor antagonists and ligands of the melatonin MT3 receptors” (PALOBIOFARMA, S.L., priority 2015, dated 2019)

Columns and labels:
MT3 melatonin receptor = MT3 melatonin receptor (Mesocricetus auratus, UniProt A0ABM2YAB8); assay: Binding to melatonin MT3 binding sites ([125I]2-iodomelatonin, hamster brain membranes); details: [125I]2-iodomelatonin radioligand
Protocol: Study of Binding to Melatonin MT3 Binding Sites
The experiment of binding to MT3 sites was carried out on hamster brain membranes using [^125I]2-iodomelatonin as radioligand in accordance with the protocol described by Pickering, D. S et al. (Pickering, D. S et al, 1990, Pharmacological characterization of melatonin binding sites in Syrian hamster hypothalamus, Eur J Pharmacol. 1990 Jan. 3; 175(1):71-7).

adenosine A2A receptor = adenosine A2A receptor (Homo sapiens (Human), UniProt P29274); assay: Adenosine A2A receptor binding (hA2A Ki)
adenosine A2A receptor, sequence (P29274 whole entry): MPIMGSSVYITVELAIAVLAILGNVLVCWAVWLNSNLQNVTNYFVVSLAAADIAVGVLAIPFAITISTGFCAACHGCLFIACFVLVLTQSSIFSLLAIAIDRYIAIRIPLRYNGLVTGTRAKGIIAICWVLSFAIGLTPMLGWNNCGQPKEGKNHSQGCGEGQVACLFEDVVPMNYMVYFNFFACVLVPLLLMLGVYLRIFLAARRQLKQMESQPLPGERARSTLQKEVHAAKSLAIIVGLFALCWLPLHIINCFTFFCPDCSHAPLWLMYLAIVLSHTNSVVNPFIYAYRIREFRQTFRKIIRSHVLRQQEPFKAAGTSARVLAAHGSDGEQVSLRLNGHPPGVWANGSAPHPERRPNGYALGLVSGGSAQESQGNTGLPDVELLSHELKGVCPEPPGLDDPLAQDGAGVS

adenosine A2B receptor = adenosine A2B receptor (Homo sapiens (Human), UniProt P29275); assay: Adenosine A2B receptor subtype competition radioligand binding assay ([3H]DPCPX); details: human recombinant receptor (HEK-293 cells), [3H]DPCPX radioligand; read-out: hA2B, Ki
adenosine A2B receptor, sequence (P29275 whole entry): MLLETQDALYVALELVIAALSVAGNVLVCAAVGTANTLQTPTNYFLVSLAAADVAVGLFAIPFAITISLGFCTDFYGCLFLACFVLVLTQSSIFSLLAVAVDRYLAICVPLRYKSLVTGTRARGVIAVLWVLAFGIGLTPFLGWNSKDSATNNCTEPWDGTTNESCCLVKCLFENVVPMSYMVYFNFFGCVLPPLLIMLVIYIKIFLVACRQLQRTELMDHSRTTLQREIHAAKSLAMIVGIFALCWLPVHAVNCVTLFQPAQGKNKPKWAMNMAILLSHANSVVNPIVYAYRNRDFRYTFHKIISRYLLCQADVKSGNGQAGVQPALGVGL
Source text: Adenosine A2B Receptor Subtype Competition Radioligand Binding Assay

MT3 melatonin receptor, sequence (A0ABM2YAB8 1-231): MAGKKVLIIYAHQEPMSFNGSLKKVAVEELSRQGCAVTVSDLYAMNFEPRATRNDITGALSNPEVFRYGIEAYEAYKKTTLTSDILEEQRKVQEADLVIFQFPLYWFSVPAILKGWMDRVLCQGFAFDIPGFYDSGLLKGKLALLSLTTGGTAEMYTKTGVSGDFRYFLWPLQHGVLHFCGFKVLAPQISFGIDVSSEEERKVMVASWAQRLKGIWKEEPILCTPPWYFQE

SMILES | IC50 (MT3 melatonin receptor) | Ki (adenosine A2A receptor) | Ki (adenosine A2B receptor)
Nc1nc(-c2cccnc2)c(-c2ccncc2)cc1Br [Example 22, 3-bromo-6-(pyridin-3-yl)-5-(pyridin-4-yl)pyridin-2-amine] | 140 nM | 300 nM | 46.1 nM
Nc1nc(-c2ccncc2)c(-c2ccncc2F)cc1Br [Example 35, 3-bromo-5-(3-fluoropyridin-4-yl)-6-(pyridin-4-yl)pyridin-2-amine] |  | 1300 nM | 13 nM
Nc1nc(-c2cncc(F)c2)c(-c2ccncc2F)cc1Cl [Example 27, 3-chloro-6-(5-fluoropyridin-3-yl)-5-(3-fluoropyridin-4-yl)pyridin-2-amine] | 250 nM | > 5000 nM | 150 nM
COc1ccc(-c2nc(N)c(Cl)cc2-c2ccncc2F)cn1 [Example 36, 3-chloro-5-(3-fluoropyridin-4-yl)-6-(6-methoxypyridin-3-yl)pyridin-2-amine] |  | > 5000 nM | 24 nM
Nc1nc(-c2cccnc2)c(-c2ccncc2F)cc1Br [Example 24, 3-bromo-5-(3-fluoropyridin-4-yl)-6-(pyridin-3-yl)pyridin-2-amine] |  | > 5000 nM | 37 nM
Nc1nc(-c2cccnc2)c(-c2ccncc2F)cc1Cl [Example 23, 3-chloro-5-(3-fluoropyridin-4-yl)-6-(pyridin-3-yl)pyridin-2-amine] | 98 nM | 4800 nM | 23.9 nM
Nc1nc(-c2cccnc2)c(-c2ccncc2)cc1Cl [Example 21, 3-chloro-6-(pyridin-3-yl)-5-(pyridin-4-yl)pyridin-2-amine] | 130 nM | 500 nM | 34.5 nM
Nc1ccc(-c2ccncc2F)c(-c2ccncc2)n1 [Example 11, 5-(3-fluoropyridin-4-yl)-6-(pyridin-4-yl)pyridin-2-amine] |  | > 5000 nM | 149 nM
Nc1nc(-c2ccncc2)c(-c2ccncc2F)cc1Cl [Example 34, 3-chloro-5-(3-fluoropyridin-4-yl)-6-(pyridin-4-yl)pyridin-2-amine] |  | 555 nM | 12 nM
